Measured values as given in patent publication US20220119354A1, “DIAMINO-SUBSTITUTED PYRIDINES AND PYRIMIDINES AS HERBICIDES” (FMC Corporation, priority 2019, published 2022).

Columns and labels:
Format in all cases: in vivo
[1] = system: foxtail, giant (Setaria faberii); test: Test A preemergence, giant foxtail; conditions: 0 to 100 scale
Procedure, shortened: (§1)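 Post: seedlings 2–10 cm, 1–2 leaves, foliar spray. Pre: soil spray after sowing in loam/sand blend. Both formulated in non-phytotoxic solvent with surfactant; injury scored visually 0–100 after ~10 d.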

[2] = system: pigweed (Amaranthus retroflexus); test: Test A postemergence, pigweed; conditions: 0 to 100 scale
Procedure, shortened: as §1

[3] = system: corn (Zea mays); test: Test A postemergence, corn; conditions: 0 to 100 scale
Procedure, shortened: as §1

[4] = system: foxtail, giant (Setaria faberii); test: Test A postemergence, giant foxtail; conditions: 0 to 100 scale
Procedure, shortened: as §1

[5] = system: sedge, umbrella (small-flower umbrella sedge, Cyperus difformis); test: Test B flooded paddy test, umbrella sedge; conditions: Flood, 250 g ai/ha, applied to paddy water, 2-leaf stage, visual evaluation after 13 to 15 d
Procedure, shortened: (§2)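 Plants grown to 2-leaf stage. Compounds applied directly into paddy water flooded 3 cm above soil, with that depth kept throughout. After 13–15 d in greenhouse, visual rating versus controls on a 0–100 scale (0 no effect, 100 complete control).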

[6] = system: wheat (Triticum aestivum); test: Test A postemergence, wheat; conditions: 0 to 100 scale
Procedure, shortened: as §1

[7] = system: ragweed (common ragweed, Ambrosia elatior); test: Test A preemergence, ragweed; conditions: 0 to 100 scale
Procedure, shortened: as §1

[8] = system: galium (catchweed bedstraw, Galium aparine); test: Test A postemergence, galium; conditions: 0 to 100 scale
Procedure, shortened: as §1

[9] = system: barnyardgrass (Echinochloa crus-galli); test: Test A preemergence, barnyardgrass; conditions: 0 to 100 scale
Procedure, shortened: as §1

[10] = system: kochia (Kochia scoparia); test: Test A preemergence, kochia; conditions: 0 to 100 scale
Procedure, shortened: as §1

[11] = system: ducksalad (Heteranthera limosa); test: Test B flooded paddy test, ducksalad; conditions: Flood, 250 g ai/ha, applied to paddy water, 2-leaf stage, visual evaluation after 13 to 15 d
Procedure, shortened: as §2

[12] = system: kochia (Kochia scoparia); test: Test A postemergence, kochia; conditions: 0 to 100 scale
Procedure, shortened: as §1

[13] = system: pigweed (Amaranthus retroflexus); test: Test A preemergence, pigweed; conditions: 0 to 100 scale
Procedure, shortened: as §1

[14] = system: blackgrass (Alopecurus myosuroides); test: Test A postemergence, blackgrass; conditions: 0 to 100 scale
Procedure, shortened: as §1

[15] = system: ryegrass, Italian (Lolium multiflorum); test: Test A postemergence, Italian ryegrass; conditions: 0 to 100 scale
Procedure, shortened: as §1

[16] = system: barnyardgrass (Echinochloa crus-galli); test: Test B flooded paddy test, barnyardgrass; conditions: Flood, 250 g ai/ha, applied to paddy water, 2-leaf stage, visual evaluation after 13 to 15 d
Procedure, shortened: as §2

[17] = system: barnyardgrass (Echinochloa crus-galli); test: Test A postemergence, barnyardgrass; conditions: 0 to 100 scale
Procedure, shortened: as §1

[18] = system: ryegrass, Italian (Lolium multiflorum); test: Test A preemergence, Italian ryegrass; conditions: 0 to 100 scale
Procedure, shortened: as §1

[19] = system: rice (Oryza sativa); test: Test B flooded paddy test, rice; conditions: Flood, 250 g ai/ha, applied to paddy water, 2-leaf stage, visual evaluation after 13 to 15 d
Procedure, shortened: as §2

[20] = system: ragweed (common ragweed, Ambrosia elatior); test: Test A postemergence, ragweed; conditions: 0 to 100 scale
Procedure, shortened: as §1

| SMILES | Plant response rating, Foxtail, Giant ([1]; 125 g ai/ha) | Plant response rating, Foxtail, Giant ([1]; 500 g ai/ha) | Plant response rating, Pigweed ([2]; 125 g ai/ha) | Plant response rating, Pigweed ([2]; 500 g ai/ha) | Plant response rating, Corn ([3]; 125 g ai/ha) | Plant response rating, Corn ([3]; 500 g ai/ha) | Plant response rating, Foxtail, Giant ([4]; 125 g ai/ha) | Plant response rating, Foxtail, Giant ([4]; 500 g ai/ha) | Plant response rating, Sedge, Umbrella (0 to 100 scale, 0 is no effect, 100 is complete control) [5] | Plant response rating, Wheat ([6]; 125 g ai/ha) | Plant response rating, Wheat ([6]; 500 g ai/ha) | Plant response rating, Ragweed ([7]; 125 g ai/ha) | Plant response rating, Ragweed ([7]; 500 g ai/ha) | Plant response rating, Galium ([8]; 125 g ai/ha) | Plant response rating, Galium ([8]; 500 g ai/ha) | Plant response rating, Barnyardgrass ([9]; 125 g ai/ha) | Plant response rating, Barnyardgrass ([9]; 500 g ai/ha) | Plant response rating, Kochia ([10]; 125 g ai/ha) | Plant response rating, Kochia ([10]; 500 g ai/ha) | Plant response rating, Ducksalad (0 to 100 scale, 0 is no effect, 100 is complete control) [11] | also measured |
| --- | --- | --- | --- | --- | --- | --- | --- | --- | --- | --- | --- | --- | --- | --- | --- | --- | --- | --- | --- | --- | --- |
| C[C@@H](Nc1ncc(C(F)(F)F)c(N)n1)c1cc2cc(F)ccc2o1 [Compound 9] | 40 | 90 | 90 | 90 | 0 | 20 | 0 | 90 | 0 | 0 | 0 | 0 | 90 | 80 | 80 | 80 | 80 | 60 | 70 | 0 | Plant response rating, Kochia ([12]; 125 g ai/ha): 80; Plant response rating, Kochia ([12]; 500 g ai/ha): 90; Plant response rating, Pigweed ([13]; 125 g ai/ha): 100; Plant response rating, Pigweed ([13]; 500 g ai/ha): 100; Plant response rating, Blackgrass ([14]; 125 g ai/ha): 0; Plant response rating, Blackgrass ([14]; 500 g ai/ha): 30; Plant response rating, Ryegrass, Italian ([15]; 125 g ai/ha): 0; Plant response rating, Ryegrass, Italian ([15]; 500 g ai/ha): 30; Plant response rating, Barnyardgrass (0 to 100 scale, 0 is no effect, 100 is complete control) [16]: 0; Plant response rating, Barnyardgrass ([17]; 125 g ai/ha): 10; Plant response rating, Barnyardgrass ([17]; 500 g ai/ha): 70; Plant response rating, Ryegrass, Italian ([18]; 125 g ai/ha): 0; Plant response rating, Ryegrass, Italian ([18]; 500 g ai/ha): 50; Plant response rating, Rice (0 to 100 scale, 0 is no effect, 100 is complete control) [19]: 0; Plant response rating, Ragweed ([20]; 125 g ai/ha): 60; Plant response rating, Ragweed ([20]; 500 g ai/ha): 80 |
| Cc1ccc2oc([C@@H](C)Nc3ncc(C(F)(F)F)c(N)n3)cc2c1 [Compound 10] | 0 | 60 | 80 | 90 | 0 | 0 | 0 | 40 | 0 | 0 | 0 | 0 | 50 | 50 | 70 | 20 | 30 | 0 | 0 | 0 | Plant response rating, Kochia ([12]; 125 g ai/ha): 0; Plant response rating, Kochia ([12]; 500 g ai/ha): 0; Plant response rating, Pigweed ([13]; 125 g ai/ha): 0; Plant response rating, Pigweed ([13]; 500 g ai/ha): 60; Plant response rating, Blackgrass ([14]; 125 g ai/ha): 0; Plant response rating, Blackgrass ([14]; 500 g ai/ha): 20; Plant response rating, Ryegrass, Italian ([15]; 125 g ai/ha): 0; Plant response rating, Ryegrass, Italian ([15]; 500 g ai/ha): 0; Plant response rating, Barnyardgrass (0 to 100 scale, 0 is no effect, 100 is complete control) [16]: 0; Plant response rating, Barnyardgrass ([17]; 125 g ai/ha): 0; Plant response rating, Barnyardgrass ([17]; 500 g ai/ha): 20; Plant response rating, Ryegrass, Italian ([18]; 125 g ai/ha): 0; Plant response rating, Ryegrass, Italian ([18]; 500 g ai/ha): 20; Plant response rating, Rice (0 to 100 scale, 0 is no effect, 100 is complete control) [19]: 0; Plant response rating, Ragweed ([20]; 125 g ai/ha): 20; Plant response rating, Ragweed ([20]; 500 g ai/ha): 80 |
